For one series, the system named is AML12 cells. Description: Pathway of NRH-induced NAD+ synthesis: intracellular metabolites and pathway inhibitors. The note with it: for Effect of adenosine kinase inhibitor on NRH-mediated NAD+ synthesis: AML12 cells, 5-IT 10 mM for 1 hour prior to NRH, NAD measured 1 hour later. Format: cell-based. The protocol: FIG. 4. NRH leads to NAD+ biosynthesis through an adenosine kinase dependent path. AML12 cells were treated with an adenosine kinase inhibitor (5-IT; […]) for 1 hour prior to NRH treatment at the doses indicated. Then, 1 hour later, acidic extracts were obtained to measure NAD levels. All values in the figure are expressed as mean+/−SEM of 3 independent experiments. * indicates statistical difference at p<0.05 vs. the respective vehicle treated group.
(§1) Levels of NRH and other NAD-related metabolites in biological samples were obtained by using a cold liquid-liquid extraction using a mixture of methanol:water:chloroform in 5:3:5 (v/v), from which the polar phase was recovered for hydrophilic interaction ultra-high performance liquid chromatography mass spectrometry (UHPLC-MS) analysis. The UHPLC consisted of a binary pump, a cooled autosampler, and a column oven (DIONEX Ultimate 3000 UHPLC+ Focused, Thermo Scientific), connected to a triple quadrupole spectrometer (TSQ Vantage, Thermo Scientific) equipped with a heated electrospray ionisation (H-ESI) source. Of each sample, 2 μL were injected into the analytical column (2.1 mm×150 mm, 5 μm pore size, 200 Å HILICON iHILIC®-Fusion(P)), guarded by a pre-column (2.1 mm×20 mm, 200 Å HILICON iHILIC®-Fusion(P) Guard Kit) operating at 35° C. The mobile phase (10 mM ammonium acetate at pH 9, A, and acetonitrile, B) was pumped at 0.25 mL/min flow rate over a linear gradient of decreasing organic solvent (0.5-16 min, 90-25% B), followed by re-equilibration for a total run time of 30 min. The MS operated in positive mode at 3500 V with multiple reaction monitoring (MRM). The software Xcalibur v4.1.31.9 (Thermo Scientific) was used for instrument control, data acquisition and processing. Retention time and mass detection was confirmed by authentic standards.
A path in which NRH would be converted to NMNH, then to NADH and this would be finally oxidized to NAD+.
In order to understand the exact path by which NRH synthesizes NAD+, we initially evaluated whether NRH, could be transported into the cell by equilibrative nucleoside transporters (ENTs).
(§2) The action of NRH was also NAMPT-independent, based on experiments using FK866, a NAMPT inhibitor. If NRH led to NAD+ synthesis via the formation of NMNH, this hypothetical path would require the phosphorylation of NRH into NMNH. Given the essential and rate-limiting role of NRK1 in NR phosphorylation, we wondered whether the ability of NRH to boost NAD+ levels was NRK1 dependent. To answer this question, we evaluated NRH action in primary hepatocytes from either control or NRK1 knockout (NRK1KO) mice. […] Further, they rule out the possibility that NRH-induced NAD+ […] is driven by NRH oxidation into NR.
Considering the molecular structure of NRH, we reasoned that an alternative nucleoside kinase could be responsible for the phosphorylation of NRH. […] The role of AK in NRH-mediated NAD+ synthesis was confirmed using a second, structurally different, AK inhibitor, ABT-702. Metabolomic analyses further confirmed that upon inhibition of AK, the generation of NMNH, NADH and NAD+ was fully blunted, even if NRH was effectively entering the cell.
As a follow-up step, NMNAT enzymes could catalyze the transition from NMNH to NADH. […] Yet, part of the NRH action remained after gallotannin treatment when NRH was used at maximal doses.

Series [1] in a line: Stability of NRH or NR spiked in isolated mouse plasma. Format: in vitro ADME. Particulars: 2 h of incubation.
Description: as §1

Series [2] deals with primary hepatocytes from control or NRK1 knockout (NRK1KO) mice. In words: NAD+ levels in primary hepatocytes from control or NRK1 knockout mice. Format: cell-based. The note with it: 1 hour of treatment.
Description: as §2

Series [3] in a line: Circulating NRH, NR and NAM in mice after intraperitoneal injection. Particulars: mice, IP 500 mg/kg. It is filed as in vivo.
Description: as §1
(§3) The above results prompted us to test whether NRH could act as an effective NAD+ precursor in vivo. For this, we first intraperitoneally (IP) injected mice with either NR or NRH (500 mg/kg). […] Importantly, NRH was detectable in circulation after IP injection.

The next series concerns mice. In words: Tissue NAD+ levels in mice after intraperitoneal injection. It is filed as in vivo. Particulars: IP 500 mg/kg, after 1 h. The protocol: as §3
The nature of series [4]: Plasma NRH, NR and NAM in mice after oral administration. Format: in vivo. Particulars: mouse, in vivo, po.
Description: as §1
Oral administration of NRH led to very similar results to those observed after IP administration. […] NRH was detectable in plasma 1 h after oral administration. In contrast, NR levels were undetectable at 1 h after NR administration.

Where a name gives a salt, the structure may show the parent alone.

With `NC(=O)c1ccc[n+]([C@@H]2O[C@H](CO)[C@H](O)C2O)c1` (stereo partly drawn) [NR, 1-b-D-ribofuranosyl-3-pyridinecarboxamide salt, reference compound], the “Intracellular detection of NRH and NMNH” value with AML12 cells (5 minutes after treatment) is “not”. Also, in series [1], the “Compound levels in isolated mouse plasma” value is on record as “decayed” and the “Generation of NAM in isolated mouse plasma” value is reported as “increase in NAM”. The “NAD+ levels in NRK1KO derived primary hepatocytes” value in series [2] was “failed to increase NAD+ levels”. Besides, the “NAM levels in circulation” value in series [3] is “highly increased”. In addition, in the series on mice, the “NAD+ levels in kidney” value is “increased NAD+ levels”, the “NAD+ levels in liver” value was “increased NAD+ levels” and the “NAD+ levels in muscle” value was “increased NAD+ levels”. In series [4] (C57BL/6NTac, 1 h), the “Circulating NAM after NR treatment relative to NRH treatment” value is reported as roughly 4 fold. Further, in series [4], the “Administered compound in plasma” value was “undetectable” and the “Circulating NAM” value is reported as “large increases”.

Take `Nc1ncnc2nc(-c3ccc(N4CCOCC4)nc3)cc(-c3cccc(Br)c3)c12` [ABT-702]: the “Effect of adenosine kinase inhibitor on NRH-mediated NAD+ synthesis” value with AML12 cells is listed as “confirmed”.

Turning to `Nc1ncnc2c1c(I)cn2[C@@H]1O[C@H](CO)[C@@H](O)[C@H]1O` [5-IT, 5-iodotubercidin], the “Effect of adenosine kinase inhibitor on NRH-mediated NAD+ synthesis” value with AML12 cells is on record as “fully ablated the action of NRH”. Besides, in the series on AML12 cells (metabolomic analyses), the “Formation of NR and NMN after NRH treatment under AK inhibitor” value was “prevented the formation of NR and NMN”.

As for `O=C(OC[C@H]1O[C@@H](OC(=O)c2cc(O)c(O)c(OC(=O)c3cc(O)c(O)c(O)c3)c2)[C@H](OC(=O)c2cc(O)c(O)c(OC(=O)c3cc(O)c(O)c(O)c3)c2)[C@@H](OC(=O)c2cc(O)c(O)c(OC(=O)c3cc(O)c(O)c(O)c3)c2)[C@@H]1OC(=O)c1cc(O)c(O)c(OC(=O)c2cc(O)c(O)c(O)c2)c1)c1cc(O)c(O)c(OC(=O)c2cc(O)c(O)c(O)c2)c1` [gallotannin], in the series on AML12 cells (NRH at maximal doses (0.5 mM), part of NRH action remained), the “Effect of NMNAT inhibitor on NAD+ synthesis after NRH treatment” value was “largely compromised NAD+ synthesis”. For the same compound, the “Effect of NMNAT inhibitor on NRH action” value with AML12 cells (NRH at submaximal doses) is given as “totally blocked”.

The values above are taken from US20230138327A1, “COMPOSITIONS AND METHODS CONTAINING REDUCED NICOTINAMIDE RIBOSIDE FOR PREVENTION AND TREATMENT OF PANCREATIC DISEASES AND CONDITIONS” (SOCIETE DES PRODUITS NESTLE S.A., priority 2020, published 2023).
